Laboratory results reported in patent US10294202B2, “Pyrrolidinones as herbicides” (FMC Corporation, priority 2013, dated 2019).

Tests used:
[1] = system: surinam grass; assay: Test C pre-/postemergence herbicide test; format: in vivo, Brachiaria decumbens
Excerpt: Seeds of plant species selected from blackgrass (Alopecurus myosuroides), ryegrass, Italian (Italian ryegrass, Lolium multiflorum), wheat (winter wheat, Triticum aestivum), galium (catchweed bedstraw, Galium aparine), corn (Zea mays), crabgrass, large (large crabgrass, Digitaria sanguinalis), foxtail, giant (giant foxtail, Setaria faberii), johnsongrass (Sorghum halepense), lambsquarters (Chenopodium album), morningglory (Ipomoea coccinea), nutsedge, yellow (yellow nutsedge, Cyperus esculentus), pigweed (Amaranthus retroflexus), ragweed (common ragweed, Ambrosia elatior), soybean (Glycine max), barnyardgrass (Echinochloa crus-galli), oilseed rape (Brassica napus), waterhemp (common waterhemp, Amaranthus rudis), kochia (Kochia scoparia), oat, wild (wild oat, Avena fatua), surinam grass (Brachiaria decumbens), foxtail, green (green foxtail, Setaria viridis), goosegrass (Eleusine indica), bromegrass, downy (downy bromegrass, Bromus tectorum), nightshade (eastern black nightshade, Solanum ptycanthum), cocklebur (common cocklebur, Xanthium strumarium), cupgrass, woolly (woolly cupgrass, Eriochloa villosa), bermudagrass (Cynodon dactylon), sunflower, (common oilseed sunflower, Helianthus annuus), Russian thistle (Salsola kali) and velvetleaf (Abutilon theophrasti) were planted into a blend of loam soil and sand and treated preemergence with test chemicals formulated in a non-phytotoxic solvent mixture which included a surfactant. At the same time, plants selected from these crop and weed species and also barley (winter barley, Hordeum vulgare), […]), chickweed (common chickweed, Stellaria media), deadnettle (henbit deadnettle, Lamium amplexicaule), and canarygrass (littleseed canarygrass, Phalaris minor) were planted in pots containing Redi-Earth® planting medium (Scotts Company, 14111 Scottslawn Road, Marysville, Ohio 43041) comprising spaghnum peat moss, vermiculite, wetting agent and starter nutrients and treated with postemergence applications of test chemicals formulated in the same manner. Plants ranged in height from 2 to 18 cm (1- to 4-leaf stage) for postemergence treatments. Treated plants and controls were maintained in a greenhouse for 13 to 15 days, after which time all species were compared to controls and visually evaluated. Plant response ratings, summarized in Table C, are based on a scale of 0 to 100 where 0 is no effect and 100 is complete control. A dash (-) response means no test result.

[2] = system: foxtail, green; assay: Test D pre-/postemergence herbicide test; format: in vivo, Setaria viridis; details: for Plant response rating, Foxtail, Green: scale 0 to 100 (0 no effect, 100 complete control); for Plant response rating: Foxtail, Green, scale 0 to 100
Excerpt: (§1) Seeds of plant species selected from bluegrass (annual bluegrass, Poa annua), blackgrass (Alopecurus myosuroides), canarygrass (littleseed canarygrass, Phalaris minor), chickweed (common chickweed, Stellaria media), galium (catchweed bedstraw, Galium aparine), bromegrass, downy (downy bromegrass, Bromus tectorum), field poppy (Papaver rhoeas), field violet (Viola arvensis), foxtail, green (green foxtail, Setaria viridis), deadnettle (henbit deadnettle, Lamium amplexicaule), ryegrass, Italian (Italian ryegrass, Lolium multiflorum), kochia (Kochia scoparia), lambsquarters (Chenopodium album), oilseed rape (Brassica napus), pigweed (Amaranthus retroflexus), chamomile (scentless chamomile, Matricaria inodora), Russian thistle (Salsola kali), speedwell (bird's-eye speedwell, Veronica persica), barley, spring (spring barley, Hordeum vulgare), wheat, spring (spring wheat, Triticum aestivum), buckwheat, wild (wild buckwheat, Polygonum convolvulus), mustard, wild (wild mustard, Sinapis arvensis), oat, wild (wild oat, Avena fatua), radish, wild (wild radish, Raphanus raphanistrum), […]), barley, winter (winter barley, Hordeum vulgare), and wheat, winter (winter wheat, Triticum aestivum) were planted into a silt loam soil and treated preemergence with test chemicals formulated in a non-phytotoxic solvent mixture which included a surfactant. At the same time, these species were planted in pots containing Redi-Earth® planting medium (Scotts Company, 14111 Scottslawn Road, Marysville, Ohio 43041) comprising spaghnum peat moss, vermiculite, wetting agent and starter nutrients and treated with postemergence applications of the test chemicals formulated in the same manner. Plants ranged in height from 2 to 18 cm (1- to 4-leaf stage). Treated plants and controls were maintained in a controlled growth environment for 7 to 21 days after which time all species were compared to controls and visually evaluated. Plant response ratings, summarized in Table D, are based on a scale of 0 to 100 where 0 is no effect and 100 is complete control. A dash (-) response means no test result.

[3] = system: windgrass; assay: Test D pre-/postemergence herbicide test; format: in vivo, Apera spica-venti; details: for Plant response rating, Windgrass: Preemergence, scale 0 to 100 (0 no effect, 100 complete control); for Plant response rating: Postemergence, Windgrass, scale 0 to 100
Excerpt: as §1

[4] = Postemergence, 31 g ai/ha, scale 0 (no effect) to 100 (complete control)
[5] = Postemergence, 62 g ai/ha, scale 0 to 100 (0 no effect, 100 complete control)
[6] = Postemergence, 125 g ai/ha, scale 0 to 100 (0 no effect, 100 complete control)
[7] = Preemergence, 62 g ai/ha, scale 0 to 100
[8] = Preemergence, 125 g ai/ha, scale 0 to 100 (0 no effect, 100 complete control)

Structure (SMILES)	Plant response rating, Surinam Grass [1, 4]	Plant response rating, Surinam Grass [1, 5]	Plant response rating, Surinam Grass [1, 7]	Plant response rating, Surinam Grass [1, 8]	Plant response rating, Foxtail, Green ([2]; Preemergence, 62 g ai/ha)	Plant response rating, Foxtail, Green ([2]; Preemergence, 31 g ai/ha)	Plant response rating ([2]; Preemergence, 125 g ai/ha)	Plant response rating ([2]; Preemergence, 250 g ai/ha)	Plant response rating, Windgrass ([3]; 62 g ai/ha)	Plant response rating, Windgrass ([3]; 125 g ai/ha)	Plant response rating, Windgrass ([3]; 31 g ai/ha)	Plant response rating, Windgrass ([3]; 250 g ai/ha)	Plant response rating ([2]; Postemergence, 31 g ai/ha)	Plant response rating ([2]; Postemergence, 62 g ai/ha)	Plant response rating ([2]; Postemergence, 125 g ai/ha)	Plant response rating ([2]; Postemergence, 250 g ai/ha)	Plant response rating ([3]; 31 g ai/ha)	Plant response rating ([3]; 62 g ai/ha)	Plant response rating ([3]; 125 g ai/ha)	Plant response rating ([3]; 250 g ai/ha)	other results
O=C1NCC(c2ccc(F)c(Cl)c2)C1C(=O)Nc1ccccc1F (centres unmarked) [Compound 60]	0	0	70	70	–	–	–	–	–	–	–	–	–	–	–	–	–	–	–	–	Plant response rating, Surinam Grass [1, 6]: 0
O=C1NCC(c2ccc(F)c(C(F)(F)F)c2)C1C(=O)Nc1cccc(F)c1F (racemic) [Compound 77]	–	–	–	–	80	15	70	85	85	90	45	95	–	–	–	–	–	–	–	–	–
O=C1NCC(c2ccc(C(F)(F)F)cc2)C1C(=O)Nc1ccccc1F (centres unmarked) [Compound 231]	–	–	–	–	80	45	–	98	70	75	55	85	10	65	70	70	0	5	0	15	Plant response rating, Foxtail, Green ([2]; Preemergence, 125 g ai/ha): 95
O=C1NCC(c2cc(F)c(F)c(F)c2)C1C(=O)Nc1cccc(F)c1F (centres unmarked) [Compound 48]	5	25	75	85	–	–	–	–	–	–	–	–	–	–	–	–	–	–	–	–	Plant response rating, Surinam Grass ([1]; Postemergence, 16 g ai/ha, scale 0 to 100 (0 no effect, 100 complete control)): 0; Plant response rating, Surinam Grass [1, 6]: 25; Plant response rating, Surinam Grass ([1]; Preemergence, 16 g ai/ha, scale 0 to 100): 10
O=C1NCC(c2ccc(C(F)(F)F)cc2)C1C(=O)Nc1cccc(F)c1F (centres unmarked) [Compound 80, N-(2,3-difluorophenyl)-2-oxo-4-[4-(trifluoromethyl)phenyl]-3-pyrrolidinecarboxamide]	–	–	–	–	65	20	75	80	20	75	5	90	45	45	65	65	0	10	10	25	–
O=C1NCC(c2ccc(Cl)c(F)c2)C1C(=O)Nc1cccc(F)c1F (centres unmarked) [Compound 52]	0	5	35	45	0	0	0	60	0	40	0	60	0	0	0	0	0	0	0	0	Plant response rating, Surinam Grass ([1]; Postemergence, 250 g ai/ha, scale 0 to 100 (0 no effect, 100 complete control)): 30; Plant response rating ([2]; Postemergence, 16 g ai/ha): 0; Plant response rating, Foxtail, Green ([2]; Preemergence, 16 g ai/ha): 0; Plant response rating ([3]; 16 g ai/ha): 0; Plant response rating, Windgrass ([3]; 16 g ai/ha): 0
O=C1NCC(c2ccc(F)c(F)c2)C1C(=O)Nc1ccccc1C(F)(F)F (racemic) [Compound 6]	–	–	–	–	0	0	0	10	0	100	0	100	0	0	0	20	0	0	0	0	Plant response rating ([2]; Postemergence, 16 g ai/ha): 0; Plant response rating, Foxtail, Green ([2]; Preemergence, 16 g ai/ha): 0; Plant response rating ([3]; 16 g ai/ha): 0; Plant response rating, Windgrass ([3]; 16 g ai/ha): 0
O=C1NCC(c2ccc(Cl)c(Cl)c2)C1C(=O)Nc1ccccc1F (racemic) [Compound 14]	–	–	80	95	–	–	–	–	–	–	–	–	–	–	–	–	–	–	–	–	–
O=C1NCC(c2cccc(OC(F)(F)F)c2)C1C(=O)Nc1ccccc1F (centres unmarked) [Compound 69]	–	–	75	85	–	–	–	–	–	–	–	–	–	–	–	–	–	–	–	–	Surinam Grass plant response rating ([1]; Preemergence, 31 g ai/ha, scale 0 to 100, 0 is no effect and 100 is complete control): 60; Plant response rating (scale of 0 to 100), Surinam Grass ([1]; Preemergence, 250 g ai/ha): 85
O=C1NCC(c2ccc(C(F)(F)F)cc2)C1C(=O)Nc1cccc(F)c1F (racemic) [Compound 202]	–	–	–	–	90	90	98	95	85	90	65	90	60	65	70	70	0	10	35	45	–
